Measurements as given in US9051317B2, “Azaindoles as respiratory syncytial virus antiviral agents” (JANSSEN SCIENCES IRELAND UC, priority 2010, dated 2015).
Like-named read-outs stand apart in the source and are kept apart here.

Tested on: rgRSV224 virus
Experiment: microbe, parasite or virus in culture
Format: cell-based, respiratory syncytial virus (RSV)
Conditions: for SI CC50/EC50: selectivity index, CC50 (HeLa cytotoxicity) / EC50 (rgRSV224); for EC50: read-out: WT activity EC50
Procedure: Black 96-well clear-bottom microtiter plates (Corning, Amsterdam, The Netherlands) were filled in duplicate using a customized robot system with serial 4-fold dilutions of compound in a final volume of 50 μl culture medium [RPMI medium without phenol red, 10% FBS, 0.04% gentamycin (50 mg/mL) and 0.5% DMSO]. Then, 100 μl of a HeLa cell suspension (5×10^4 cells/mL) in culture medium was added to each well followed by the addition of 50 μl rgRSV224 (MOI=0.02) virus in culture medium using a multidrop dispenser (Thermo Scientific, Erembodegem, Belgium). rgRSV224 virus is an engineered virus that includes an additional GFP gene (Hallak et al, 2000) and was in-licensed from the NIH (Bethesda, Md., USA). Medium, virus- and mock-infected controls were included in each test. Cells were incubated at 37° C. in a 5% CO2 atmosphere. Three days post-virus exposure, viral replication was quantified by measuring GFP expression in the cells by a MSM laser microscope (Tibotec, Beerse, Belgium). The EC50 was defined as the 50% inhibitory concentration for GFP expression. In parallel, compounds were incubated for three days in a set of white 96-well microtitier plates (Corning) and the cytotoxicity of compounds in HeLa cells was determined by measuring the ATP content of the cells using the ATPlite kit (PerkinElmer, Zaventem, Belgium) according to the manufacturer's instructions. The CC50 was defined as the 50% concentration for cytotoxicity.

[1] = human respiratory syncytial virus, HeLa, 72 h
[2] = Table 2, rgRSV224 in HeLa cells, MOI 0.02, three days post-virus exposure, GFP expression

SMILES	SI CC50/EC50 (Table 2)	EC50 [1]	EC50 [2]	SI CC50/EC50 (Table 3)
O=c1n(Cc2cc3cc(Cl)ncc3n2CCCCF)c2cnccc2n1C1CC1 [Compound P11, 3-((5-chloro-1-(4-fluorobutyl)-1H-pyrrolo[2,3-c]pyridin-2-yl)methyl)-1-cyclopropyl-1H-imidazo[4,5-c]pyridin-2(3H)-one]	>9387	5.33 nM	–	–
O=c1n(Cc2cc3cc(Cl)ncc3n2CCCC(F)(F)F)c2cnccc2n1C1CC1 [Compound P12]	>10526	–	2.38 nM	–
O=c1n(Cc2cc3cc(Cl)ncc3n2CCCC(F)(F)F)c2cnccc2n1CC(F)(F)F [Compound P13]	>106591	–	0.938 nM	–
O=c1n(Cc2cc3cc(Cl)ncc3n2CCCC(F)(F)F)c2cc(F)ccc2n1CC(F)(F)F [Compound P14]	>5823	–	17.2 nM	–
O=c1n(Cc2cc3cc(Cl)ncc3n2CCCCF)c2cnccc2n1CC(F)(F)F [Compound P15]	51626	–	1.58 nM	–
O=c1n(Cc2cc3cc(Cl)ncc3n2CCCC(F)(F)F)c2cc(F)ccc2n1C1CC1 [Compound P16]	>2730	–	39.8 nM	–
CS(=O)(=O)CCCn1c(Cn2c(=O)n(C3CC3)c3ccncc32)cc2cnccc21 [Compound P18]	>102089	–	0.98 nM	–
O=c1n(Cc2cc3cnccc3n2CCCCF)c2cnccc2n1C1CC1 [Compound P19]	>186574	–	0.536 nM	–
CC(C)CCn1c(Cn2c(=O)n(C3CC3)c3ccncc32)cc2cnccc21 [Compound P20]	294002	–	0.28 nM	–
O=c1n(Cc2cc3cnccc3n2CCCC(F)(F)F)c2cnccc2n1C1CC1 [Compound P21]	>405210	–	0.247 nM	–
O=c1n(Cc2c(Cl)c3cnccc3n2CCCC(F)(F)F)c2cnccc2n1C1CC1 [Compound P22]	>20007	–	5 nM	–
O=c1n(Cc2c(F)c3cnccc3n2CCCC(F)(F)F)c2cnccc2n1C1CC1 [Compound P23]	>3416	–	29.3 nM	–
O=c1n(Cc2cc3cnccc3n2CCCC(F)(F)F)c2c(F)nccc2n1C1CC1 [Compound P24]	–	0.17 nM	–	>589061
Cc1c(Cn2c(=O)n(C3CC3)c3ccncc32)n(CCCC(F)(F)F)c2ccncc12 [Compound P25]	>73885	–	1.35 nM	–
O=c1n(Cc2c(I)c3cnccc3n2CCCC(F)(F)F)c2cnccc2n1C1CC1 [Compound P26]	21638	–	2.35 nM	–
CS(=O)(=O)CCCn1c(Cn2c(=O)n(CC(F)(F)F)c3ccc(F)cc32)c(Br)c2cnccc21 [Compound P29]	307	–	63.5 nM	–
CS(=O)(=O)CCCn1c(Cn2c(=O)n(CC(F)(F)F)c3ccc(F)cc32)cc2cnccc21 [Compound P30]	>162986	–	0.614 nM	–
CC(C)CCn1c(Cn2c(=O)n(C3CC3)c3ccncc32)cc2nc(Cl)ccc21 [Compound P32]	>1286	–	7.77 nM	–
CS(=O)(=O)CCCn1c(Cn2c(=O)n(C3CC3)c3ccncc32)cc2nc(Cl)ccc21 [Compound P33]	>17372	–	5.76 nM	–
CC(C)CCn1c(Cn2c(=O)n(C3COC3)c3ccncc32)cc2nc(Cl)ccc21 [Compound P34]	>2856	–	35 nM	–
CS(=O)(=O)CCCn1c(Cn2c(=O)n(C3COC3)c3ccncc32)cc2nc(Cl)ccc21 [Compound P36]	>14674	–	6.81 nM	–
CS(=O)(=O)CCCn1c(Cn2c(=O)n(C3CC3)c3ccc(F)cc32)cc2nc(Cl)ccc21 [Compound P37]	>4479	–	22.3 nM	–
CC(C)CCn1c(Cn2c(=O)n(C3CC3)c3ccc(F)cc32)cc2nc(Cl)ccc21 [Compound P38]	1510	–	32.8 nM	–
CC(C)CCn1c(Cn2c(=O)n(C3CC3)c3ccccc32)cc2nc(Cl)ccc21 [Compound P39]	>388	–	129 nM	–
